# Where a name gives a salt, the structure may show the parent alone.
# Experiments:
# rabbit GSK-3β = rabbit GSK-3β (Oryctolagus cuniculus, UniProt G1T8E2); assay: GSK-3β-inhibitory activity (phosphorylation of CREB phosphopeptide, [γ-32P]ATP, scintillation counting); format: biochemical; conditions: rabbit GSK-3β (0.5 unit), 30° C. for 20 minutes, Table 1
# Procedure: CREB phosphopeptide ([…]), rabbit GSK-3β (0.5 unit), ATP ([…]), [γ-^32P]ATP (12.3 kBq) and a test compound were reacted in a GSK-3β buffer solution (25 μL) (20 mmol/L Tris-HCl (pH 7.5), 10 mmol/L magnesium chloride, 5 mmol/L dithiothreitol) containing 1% dimethyl sulfoxide, at 30° C. for 20 minutes. The reaction product (10 μL) was adsorbed on a P81 ion-exchange paper, and the paper was washed with phosphoric acid (100 mmol/L) and measured for cpm on a scintillation counter.
# CREB Phosphopeptide is Lys-Arg-Arg-Glu-Ile-Leu-Ser-Arg-Arg-Pro-Ser(P)-Tyr-Arg.
# Sequence of rabbit GSK-3β (G1T8E2 1-432): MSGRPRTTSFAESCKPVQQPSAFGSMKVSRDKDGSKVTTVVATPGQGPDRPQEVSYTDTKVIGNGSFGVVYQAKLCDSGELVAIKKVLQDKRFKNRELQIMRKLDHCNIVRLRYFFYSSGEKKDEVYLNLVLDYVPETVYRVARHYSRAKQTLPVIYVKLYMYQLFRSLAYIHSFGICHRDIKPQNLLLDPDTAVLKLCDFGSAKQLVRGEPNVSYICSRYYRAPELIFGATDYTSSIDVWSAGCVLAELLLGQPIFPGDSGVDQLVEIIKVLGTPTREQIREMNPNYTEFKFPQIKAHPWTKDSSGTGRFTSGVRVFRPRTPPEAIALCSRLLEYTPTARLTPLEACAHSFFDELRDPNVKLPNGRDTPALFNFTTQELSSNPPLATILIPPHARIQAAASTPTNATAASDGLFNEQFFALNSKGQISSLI
SMILES,IC50 (rabbit GSK-3β),melting point
"CC(=O)CC1=C(C#N)C(c2cccc(C#N)c2Br)c2c[nH]nc2N1 (stereo not shown) [Example 1063, 6-Acetylmethyl-4-(2-bromo-3-cyanophenyl)-5-cyano-4,7-dihydro-2H-pyrazolo[3,4-b]pyridine]",3 nM,230 °C
"N#CC1=C([C@@H]2C[C@H]3CC[C@@H]2NC3)Nc2n[nH]cc2C1c1cccc(C#N)c1Br (stereo partly drawn) [Example 1146, 6-(exo-2-Azabicyclo[2,2,2]octan-6-yl)-4-(2-bromo-3-cyanophenyl)-5-cyano-4,7-dihydro-2H-pyrazolo[3,4-b]pyridine 2 Hydrochloride]",0.61 nM,
"CCCC1=C(c2nnc(C)o2)C(c2cccc(C#N)c2Br)c2c[nH]nc2N1 (stereo not shown) [Example 1158, 4-(2-Bromo-3-cyanophenyl)-4,7-dihydro-5-(5-methyl-1,3,4-oxadiazol-2-yl)-6-propyl-2H-pyrazolo[3,4-b]pyridine]",0.65 nM,
"CNC(C)C1=C(C#N)C(c2cccc(C#N)c2Br)c2c[nH]nc2N1 (stereo not shown) [Example 1155, 4-(2-Bromo-3-cyanophenyl)-5-cyano-4,7-dihydro-6-(1-(methylamino)ethyl)-2H-pyrazolo[3,4-b]pyridine 2 Hydrochloride]",2.2 nM,

# Next, values leading:
IC50 (rabbit GSK-3β),melting point,SMILES
4.1 nM,,"CN(C)C1CCC(C2=C(C#N)C(c3cccc4nonc34)c3c[nH]nc3N2)CC1 (stereo not shown) [Example 1023, 4-(2,1,3-Benzoxadiazol-4-yl)-5-cyano-4,7-dihydro-6-(4-(N,N-dimethylamino)cyclohexyl)-2H-pyrazolo[3,4-b]pyridine]"
2.5 nM,,"CN1CCC(C2=C(C#N)C(c3cccc4nonc34)c3c[nH]nc3N2)CC1 (stereo not shown) [Example 1003, 4-(2,1,3-Benzoxadiazol-4-yl)-5-cyano-4,7-dihydro-6-(1-methylpiperidin-4-yl)-2H-pyrazolo[3,4-b]pyridine]"
10 nM,216 °C,"N#CC1=C(C2CCNCC2)Nc2n[nH]cc2C1c1cccc2nonc12 (stereo not shown) [Example 1002, 4-(2,1,3-Benzoxadiazol-4-yl)-5-cyano-4,7-dihydro-6-(piperidin-4-yl)-2H-pyrazolo[3,4-b]pyridine]"
3.7 nM,,"N#CC1=C(C2CCCCN2)Nc2n[nH]cc2C1c1cccc2nonc12 (stereo not shown) [Example 1008, 4-(2,1,3-Benzoxadiazol-4-yl)-5-cyano-4,7-dihydro-6-(piperidin-2-yl)-2H-pyrazolo[3,4-b]pyridine]"

# Source: patent US6977262B2, “Dihydropyrazolopyridine compounds and pharmaceutical use thereof” (Mitsubishi Pharma Corporation, priority 2001, dated 2005)
